Values after ≈ are worked out from the molar mass of the structure shown. Read-outs that look alike come from different tables or passages of the source.
Legend:
human CB2R = target: T1, human CB2R (Homo sapiens, UniProt P34972); assay: PathHunter β-arrestin recruitment assay, hCB2R; format: cell-based
T1 construct: bgal (beta-galactosidase fragment of the PathHunter system, named only in the cell line's name); host or cells: CHO-K1 (CHOK1hCB2_bgal)
Method: (§1) Assays were carried out using the PathHunter hCB1_bgal, hCB2_bgal, or mCB2_bgal CHOK1 β-arrestin recruitment assay kit (DiscoveRx, Fremont, CA, USA) as previously described. A total of 5000 cells per well were seeded in 384-well plates (Perkin Elmer, MA, USA) containing 20 μL cell culture medium and incubated for 16–18 h at 37 °C and 5% CO2. Cells were stimulated with 10 μM of each agonist or 11 increasing concentrations and incubated for 90 min at 37 °C and 5% CO2. […] The cells were incubated for 90 min at 37 °C and 5% CO2. Compounds in DMSO stock solutions were added using a HP D300 Digital Dispenser (Tecan, Mannedorf, Switzerland). The final concentration of organic solvent per assay point was ≤ 0.1%. The PathHunter Detection mixture was used, according to the manufacturer’s protocol, to determine the β-galactosidase enzyme activity. Detection mixture, 12 μL per well, was added and the plate was incubated for 1 h in the dark at room temperature. Chemiluminescence, indicated as relative light unit, was measured on an EnVision multilabel plate reader (Perkin Elmer, MA, USA).

[1] = Chemical stability (aqueous stability assay ASTA); format: physicochemical; settings: aqueous buffer, 37 °C
Method: Chemical Stability (= Aqueous Stability Assay ASTA)
ASTA is a fully automated assay to determine the 2 h stability of a molecule in aqueous conditions, over the pH range 1–10. Five different pH values are used and the solutions are heated at 37 °C. A compound is classified unstable if, after 2 h, less than 90% of the initial concentration can be found. Samples are first prepared on incubation plates and shaken initially for 10 min at 37 °C.
Solutions are then transferred to a filter plate (Millipore MSGVN2250, pore size 0.22 µm) and filtrated into V-bottom plates (from ABGene, AB-0800) that are heat-sealed prior to HPLC analysis. The procedure is performed a second time. However, the incubation time at 37 °C for the second plate is increased by 2 h. Samples are taken at time point 0 and 2 h and analyzed by HPLC. […]

CYP2C9 = CYP2C9 (Homo sapiens, UniProt P11712); assay: Cytochrome P450 inhibition assay, CYP2C9; format: in vitro ADME; settings: read-out: IC50 CYP2C9
[2] = Method: The GSH adduct formation test aims for the identification of molecules which bear the risk of forming reactive metabolites that might trigger drug-induced liver injury and drug-induced hypersensitivity reactions in patients. The compounds are incubated with liver microsomes to assess reactive metabolite formation. Glutathione is added as a nucleophile to convert eventually formed reactive species into a stable conjugate that can be analyzed by mass spectrometry. Details on the assay have been reported in Brink et al. (2014). […]
[3] = Saturation solubility in selected solvents/vehicles; format: physicochemical; settings: for solubility: thermodynamic from solid
Method: Saturation Solubility (= Thermodynamic Solubility)
Approximately 8.6 mg test compound per milliliter solvent/vehicle was stirred in HPLC vials (9 × 12 × 32 mm, Waters) at 350 rpm for 15 h. Samples of 10 µL each were taken and microscopically examined for presence of solid particles. If the active pharmacological ingredient (API) dissolved completely, more solid API was added, and stirring was continued for another 15 h. Addition of solid material was repeated up to 96 h or until residual solid particles could be detected. Samples of 0.5 mL were then transferred to Eppendorf Ultrafree filter tubes (Filter: PVDF 0.22 µm) and centrifuged at 14,500 rpm for 10 min. The filtrates were diluted in ethanol and analyzed for content by UPLC. The measurements were also conducted in 0.05 M aqueous phosphate buffer, fasted (FaSSIF), and fed (FeSSIF) simulated gastrointestinal fluid. […]

human CB1R = target: T2, human CB1R (Homo sapiens, UniProt P21554); settings: * previously published; read-out: hCB1R: beta arrestin EC50; cited from earlier work
T2 construct: host or cells: CHO

[4] = * previously published; cited from earlier work
[5] = phosphate buffer pH 6.5; * previously published; cited from earlier work
[6] = cited from earlier work; for PAMPA Peff: * at end of cell: previously published; for PAMPA %Acceptor / PAMPA %Donor / PAMPA %Membrane: * previously published
[7] = human hepatocytes; * previously published; cited from earlier work
human P-gp = settings: cited from earlier work; for P-glycoprotein-Mediated Efflux Extraction Ratio human: human P-gp, * previously published
mouse CB2R = mouse CB2R (Mus musculus, UniProt P47936); assay: cell-based; format: cell-based; parameters: bgal (beta-galactosidase fragment of the PathHunter system, named only in the cell line's name); host or cells: CHO-K1 (CHOK1mCB2_bgal); settings: for EC50: read-out: mouse CB2R: beta arrestin EC50
Method: as §1

[8] = pH 1, 2 h, read-out: Chemical Stability in Aqueous Buffer at pH 1 (% remaining after 2 h at 37 °C)
[9] = pH 4, 2 h, read-out: Chemical Stability in Aqueous Buffer at pH 4 (% remaining after 2 h at 37 °C)
[10] = pH 6.5, 2 h, read-out: Chemical Stability in Aqueous Buffer at pH 6.5 (% remaining after 2 h at 37 °C)
[11] = pH 8, 2 h, read-out: Chemical Stability in Aqueous Buffer at pH 8 (% remaining after 2 h at 37 °C)
[12] = pH 10, 2 h, read-out: Chemical Stability in Aqueous Buffer at pH 10 (% remaining after 2 h at 37 °C)
[13] = aqueous with cosolvent or surfactant or cyclodextrin, n = 1, RO6871085 as hydrochloride salt, HU308 crystalline material, > = saturation not achieved, read-out: Solubility in Tocrisolve
[14] = oil or lipid, n = 1, RO6871085 as hydrochloride salt, HU308 crystalline material, > = saturation not achieved, read-out: Solubility in MCT (Miglyol 812)
[15] = pH 6, aqueous with cosolvent or surfactant or cyclodextrin, 200 mM glycocholic acid, 200 mM lecithin in water for injection, pH 6, n = 1, RO6871085 as hydrochloride salt, read-out: Solubility in Mixed Micelles
[16] = solubility sample, RO6871085 as hydrochloride salt

T1 sequence (P34972 whole entry, the tested form may be a part): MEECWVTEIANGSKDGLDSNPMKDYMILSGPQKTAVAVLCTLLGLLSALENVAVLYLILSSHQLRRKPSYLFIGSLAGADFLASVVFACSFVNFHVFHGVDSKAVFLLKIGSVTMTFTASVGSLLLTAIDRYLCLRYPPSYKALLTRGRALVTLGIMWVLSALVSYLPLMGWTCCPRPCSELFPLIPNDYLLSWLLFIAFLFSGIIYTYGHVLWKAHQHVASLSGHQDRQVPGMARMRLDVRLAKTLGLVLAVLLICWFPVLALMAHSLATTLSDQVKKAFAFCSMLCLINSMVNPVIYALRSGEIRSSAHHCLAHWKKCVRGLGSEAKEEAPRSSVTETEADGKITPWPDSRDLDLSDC
Chain of mouse CB2R (P47936 whole entry, the tested form may be a part): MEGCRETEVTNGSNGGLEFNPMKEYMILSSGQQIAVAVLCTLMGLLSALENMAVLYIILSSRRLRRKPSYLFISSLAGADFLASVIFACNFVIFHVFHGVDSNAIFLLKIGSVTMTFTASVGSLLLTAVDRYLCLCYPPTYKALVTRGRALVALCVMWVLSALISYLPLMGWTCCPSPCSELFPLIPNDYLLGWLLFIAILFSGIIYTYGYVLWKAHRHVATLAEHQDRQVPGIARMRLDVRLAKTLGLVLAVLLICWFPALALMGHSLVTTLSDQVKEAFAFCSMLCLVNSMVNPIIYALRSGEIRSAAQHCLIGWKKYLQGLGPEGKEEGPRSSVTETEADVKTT
T2 sequence (P21554 whole entry): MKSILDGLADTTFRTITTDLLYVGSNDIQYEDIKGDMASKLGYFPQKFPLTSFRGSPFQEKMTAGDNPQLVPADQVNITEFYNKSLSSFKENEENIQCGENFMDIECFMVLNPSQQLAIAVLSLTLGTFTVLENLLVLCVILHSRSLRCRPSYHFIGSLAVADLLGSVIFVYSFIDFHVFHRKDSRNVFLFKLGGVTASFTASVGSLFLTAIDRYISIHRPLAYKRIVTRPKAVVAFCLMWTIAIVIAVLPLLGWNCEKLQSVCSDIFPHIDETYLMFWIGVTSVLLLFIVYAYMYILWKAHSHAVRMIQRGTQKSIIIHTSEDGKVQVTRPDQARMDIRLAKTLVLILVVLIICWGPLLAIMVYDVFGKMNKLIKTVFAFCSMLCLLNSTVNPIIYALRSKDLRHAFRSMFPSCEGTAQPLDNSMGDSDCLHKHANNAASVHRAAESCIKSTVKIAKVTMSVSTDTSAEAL
Chain of CYP2C9 (P11712 whole entry): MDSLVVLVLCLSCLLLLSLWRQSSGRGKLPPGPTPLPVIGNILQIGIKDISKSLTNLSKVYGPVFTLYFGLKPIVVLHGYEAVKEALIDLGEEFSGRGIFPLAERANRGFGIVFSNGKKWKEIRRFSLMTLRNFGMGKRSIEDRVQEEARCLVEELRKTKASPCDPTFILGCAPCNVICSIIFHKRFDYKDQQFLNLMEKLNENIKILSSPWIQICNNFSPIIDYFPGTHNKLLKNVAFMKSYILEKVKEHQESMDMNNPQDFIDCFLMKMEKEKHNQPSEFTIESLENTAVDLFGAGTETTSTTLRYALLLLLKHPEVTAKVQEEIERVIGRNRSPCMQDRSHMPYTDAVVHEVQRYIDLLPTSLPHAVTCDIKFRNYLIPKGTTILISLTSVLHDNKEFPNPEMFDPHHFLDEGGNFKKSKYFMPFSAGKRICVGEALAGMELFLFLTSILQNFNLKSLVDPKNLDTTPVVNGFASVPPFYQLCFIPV

Row | SMILES | hCB1R beta arrestin EC50/hCB2R beta arrestin EC50 (human CB2R) | remaining at 2 h [1, 8] | remaining at 2 h [1, 9] | remaining at 2 h [1, 10] | remaining at 2 h [1, 11] | remaining at 2 h [1, 12] | IC50 (CYP2C9) | GSH Adduct Formation in Human Liver Microsomes [2] | solubility in Tocrisolve 100 [3] | solubility [3, 13] | solubility [3, 14] | solubility [3, 15] | pH of solution in Mixed Micelles [3, 16] | pH of solution in Tocrisolve [3, 16] | EC50 (human CB1R) | Plasma Protein Binding: FREE Fraction human [4] | PAMPA Peff [6] | PAMPA %Acceptor [6] | PAMPA %Donor [6] | PAMPA %Membrane [6] | other results
1 | CCCCCCC(C)(C)c1cc(OC)c(C2=C[C@H]3CC[C@]2(CO)C3(C)C)c(OC)c1 [HU910, {(1S,4R)-2-[2,6-dimethoxy-4-(2-methyloctan-2-yl)phenyl]-7,7-dimethylbicyclo[2.2.1]hept-2-en-1-yl}methanol, reference compound] | >275 | 94% | 93% | 91% | 94% | 93% | > 50 µM | no adduct | good solvent | 19200 µg/mL | > 87800 µg/mL | 4400 µg/mL | 6.2 | 6.2 | > 30 µM | 1.8% | 0.45 10*-6 cm/s | 1% | 42% | 57% | solubility ([3]; aqueous with cosolvent or surfactant or cyclodextrin, in demin. water, n = 1, HU308 crystalline material, read-out: Solubility in HP-beta-CD 15%): 320 µg/mL (≈ 772 µM); time of stirring to full dissolution in Tocrisolve 100 ([3]; data not shown): approximately 72 h; Solubility in PEG400 30% ([3]; in demin. water, n = 1, HU308 crystalline material): < LOD; pH of solution in HP-beta-CD 15% ([3]; solubility sample): 6.2; pH of solution in PEG400 30% ([3]; solubility sample): 6.0; Kinetic Solubility [5]: < 0.5 µg/mL; Hepatocyte Clearance human [7]: 9.2 μL/min/Mio cells; P-glycoprotein-Mediated Efflux Extraction Ratio human (human P-gp): 2.2; hCB2R β-arrestin EC50/mouse CB2R β-arrestin EC50 (mouse CB2R): 0.5; mouse CB2R: beta arrestin efficacy (mouse CB2R): 54%; EC50 (mouse CB2R): 0.224 µM
2 | Cc1nc([C@](C)(CC2CC2)NC(=O)c2cc(OCC(F)(F)F)c(C3CC3)cn2)no1 [RO6871085, 5-Cyclopropyl-N-[(2S)-1-cyclopropyl-2-(5-methyl-1,2,4-oxadiazol-3-yl)propan-2-yl]-4-(2,2,2-trifluoroethoxy)pyridine-2-carboxamide] | >545 | 99% | 99% | 97% | 99% | 99% | 8 µM | no adduct | good solvent | > 30000 µg/mL | 2300 µg/mL | 200 µg/mL | 6.1 | 1.2 | > 30 µM | 1.0% | 2.44 10*-6 cm/s | 2% | 20% | 78% | functional behaviour in hCB2R β-arrestin assay (human CB2R): partial agonist; hCB2R: beta arrestin efficacy (human CB2R): 51%; EC50 (human CB2R; read-out: hCB2R: beta arrestin EC50): 0.055 µM; Hepatocyte Clearance human [7]: 17 μL/min/Mio cells; P-glycoprotein-Mediated Efflux Extraction Ratio human (human P-gp): 1.4; P-gp substrate, human (human P-gp; underlying data previously published): not a P-gp substrate; activity in mouse CB2R β-arrestin assay (mouse CB2R): not active; EC50 (mouse CB2R): > 30 µM

Source: article PMC6767236, “Selective Cannabinoid 2 Receptor Agonists as Potential Therapeutic Drugs for the Treatment of Endotoxin-Induced Uveitis” (Molecules, 2019)
